This note sets out measurements from the supplement of paper PMC10307832.

Common to all, as to experiment: relative viability (nuclei count vs DMSO), 5 days (fraction); higher = more cells survive
Compound in experiment [1]: O=C(Nc1c[nH]nc1-c1nc2ccc(CN3CCOCC3)cc2[nH]1)NC1CC1 [AT9283] + CS(=O)(=O)CCNCc1ccc(-c2ccc3ncnc(Nc4ccc(OCc5cccc(F)c5)c(Cl)c4)c3c2)o1 [Lapatinib] (partner 2 µM)
The gist of the method: (§1)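 Relative viability is defined as nuclei in treated wells over nuclei in vehicle wells. Duplicate plates were run and medians reported. Lung cancer cell lines in 1536-well plates were dosed by pin tool one day after seeding, with one drug or with a fixed anchor-drug dose plus five library-drug doses (not always all listed) in √10 steps, and nuclei were counted after 5 days.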

Compound in experiment [2]: C#Cc1cccc(Nc2ncnc3cc(OCCOC)c(OCCOC)cc23)c1 [Erlotinib] + NC(=O)Nc1cc(-c2cccc(F)c2)sc1C(=O)N[C@H]1CCCNC1 [AZD7762] (partner 0.2 µM)
The gist of the method:
as §1

Compound in experiment [3]: O=C(Nc1c[nH]nc1-c1nc2ccc(CN3CCOCC3)cc2[nH]1)NC1CC1 [AT9283] + CC(=O)c1c(C)c2cnc(Nc3ccc(N4CCNCC4)cn3)nc2n(C2CCCC2)c1=O [Palbociclib] (partner 0.5 µM)
In outline:
as §1

Compound in experiment [4]: C#Cc1cccc(Nc2ncnc3cc(OCCOC)c(OCCOC)cc23)c1 [Erlotinib] + COc1cc2c(Oc3ccc(NC(=O)C4(C(=O)Nc5ccc(F)cc5)CC4)cc3F)ccnc2cc1OCCCN1CCOCC1 [Foretinib] (partner 0.25 µM)
In outline:
as §1

Compound in experiment [5]: O=C(Nc1c[nH]nc1-c1nc2ccc(CN3CCOCC3)cc2[nH]1)NC1CC1 [AT9283] + NC(=O)Nc1cc(-c2cccc(F)c2)sc1C(=O)N[C@H]1CCCNC1 [AZD7762] (partner 0.2 µM)
The gist of the method:
as §1

For NCI-H322M, the relative viability in experiment [1] (first compound 0.003 µM) amounted to 0.548; in experiment [1] (first compound 0.03 µM) it was 0.272; in experiment [1] (first compound 0.09487 µM), 0.32; in experiment [1] (first compound 0.3 µM), 0.335; in experiment [2] (first compound 0.02 µM) it was 0.464; in experiment [2] (first compound 0.2 µM), 0.481. Besides, the relative viability is 0.371 in experiment [2] (first compound 0.6325 µM); 0.395 in experiment [2] (first compound 2 µM); 0.481 in experiment [3] (first compound 0.003 µM); 0.494 in experiment [3] (first compound 0.03 µM); 0.423 in experiment [3] (first compound 0.09487 µM); 0.427 in experiment [3] (first compound 0.3 µM). Moreover, the relative viability in experiment [4] (first compound 0.02 µM) is 0.925; in experiment [4] (first compound 0.2 µM) it was 0.619; in experiment [4] (first compound 0.6325 µM) it was 0.565; in experiment [4] (first compound 2 µM), 0.45; in experiment [5] (first compound 0.003 µM), 0.554; in experiment [5] (first compound 0.03 µM) it was 0.395. Also, the relative viability was determined as 0.46 in experiment [5] (first compound 0.09487 µM) and 0.487 in experiment [5] (first compound 0.3 µM).

Consider NCI-H358, for which the relative viability is 0.413 in experiment [1] (first compound 0.003 µM); 0.192 in experiment [1] (first compound 0.03 µM); 0.176 in experiment [1] (first compound 0.09487 µM); 0.16 in experiment [1] (first compound 0.3 µM); 0.537 in experiment [2] (first compound 0.02 µM); 0.361 in experiment [2] (first compound 0.2 µM). The relative viability in experiment [2] (first compound 0.6325 µM) is 0.429; in experiment [2] (first compound 2 µM) it was 0.201; in experiment [3] (first compound 0.003 µM) it was 0.191; in experiment [3] (first compound 0.03 µM), 0.0774; in experiment [3] (first compound 0.09487 µM), 0.0806; in experiment [3] (first compound 0.3 µM) it was 0.0739. For the same cell line, the relative viability in experiment [4] (first compound 0.02 µM) was determined as 0.656; in experiment [4] (first compound 0.2 µM), 0.408; in experiment [4] (first compound 0.6325 µM), 0.39; in experiment [4] (first compound 2 µM), 0.176; in experiment [5] (first compound 0.003 µM) it was 0.431; in experiment [5] (first compound 0.03 µM), 0.178. Besides, the values for the relative viability in experiment [5] (first compound 0.09487 µM) and in experiment [5] (first compound 0.3 µM) were 0.186 and 0.175, respectively.

For the cell line NCI-H460, the relative viability was determined as 1.05 in experiment [1] (first compound 0.003 µM); 0.0247 in experiment [1] (first compound 0.03 µM); 0.0158 in experiment [1] (first compound 0.09487 µM); 0.0301 in experiment [1] (first compound 0.3 µM); 0.613 in experiment [2] (first compound 0.02 µM); 0.734 in experiment [2] (first compound 0.2 µM). The relative viability in experiment [2] (first compound 0.6325 µM) came out at 0.631; in experiment [2] (first compound 2 µM) it was 0.629; in experiment [3] (first compound 0.003 µM) it was 0.146; in experiment [3] (first compound 0.03 µM) it was 0.191; in experiment [3] (first compound 0.09487 µM), 0.0941; in experiment [3] (first compound 0.3 µM) it was 0.0475. Moreover, the relative viability amounted to 0.973 in experiment [4] (first compound 0.02 µM); 1.02 in experiment [4] (first compound 0.2 µM); 0.968 in experiment [4] (first compound 2 µM); 0.543 in experiment [5] (first compound 0.003 µM); 0.687 in experiment [5] (first compound 0.03 µM); 0.131 in experiment [5] (first compound 0.09487 µM). Moreover, in experiment [5] (first compound 0.3 µM), the relative viability was 0.11.

In the case of NCI-H647, the relative viability was 1.06 in experiment [1] (first compound 0.003 µM); 0.124 in experiment [1] (first compound 0.03 µM); 0.123 in experiment [1] (first compound 0.09487 µM); 0.0895 in experiment [1] (first compound 0.3 µM); 0.465 in experiment [2] (first compound 0.02 µM); 0.439 in experiment [2] (first compound 0.2 µM). The relative viability in experiment [2] (first compound 0.6325 µM) came to 0.508; in experiment [2] (first compound 2 µM), 0.431; in experiment [3] (first compound 0.003 µM), 0.395; in experiment [3] (first compound 0.03 µM), 0.363; in experiment [3] (first compound 0.09487 µM), 0.126; in experiment [3] (first compound 0.3 µM) it was 0.131. In addition, the relative viability was 1.13 in experiment [4] (first compound 0.02 µM); 1.04 in experiment [4] (first compound 0.2 µM); 1.32 in experiment [4] (first compound 0.6325 µM); 1.04 in experiment [4] (first compound 2 µM); 0.524 in experiment [5] (first compound 0.003 µM); 0.13 in experiment [5] (first compound 0.03 µM). In addition, the relative viability in experiment [5] (first compound 0.09487 µM) was 0.0611; in experiment [5] (first compound 0.3 µM) it was 0.0591.

On to NCI-H650, for which the relative viability in experiment [1] (first compound 0.003 µM) was found to be 0.832; in experiment [1] (first compound 0.03 µM) it was 0.842; in experiment [1] (first compound 0.09487 µM), 0.252; in experiment [1] (first compound 0.3 µM), 0.199; in experiment [2] (first compound 0.02 µM), 0.953; in experiment [2] (first compound 0.2 µM) it was 1.19. The relative viability in experiment [2] (first compound 0.6325 µM) was determined as 1.23; in experiment [2] (first compound 2 µM), 1.28; in experiment [3] (first compound 0.003 µM), 0.314; in experiment [3] (first compound 0.03 µM) it was 0.334; in experiment [3] (first compound 0.09487 µM), 0.209; in experiment [3] (first compound 0.3 µM), 0.122. Also, the relative viability in experiment [4] (first compound 0.02 µM) is 1.03; in experiment [4] (first compound 0.2 µM), 1.02; in experiment [4] (first compound 0.6325 µM), 1.19; in experiment [4] (first compound 2 µM) it was 0.924; in experiment [5] (first compound 0.003 µM), 0.814; in experiment [5] (first compound 0.03 µM), 0.923. Also, the relative viability in experiment [5] (first compound 0.09487 µM) turned out to be 0.373; in experiment [5] (first compound 0.3 µM) it was 0.227.

As for NCI-H727, the relative viability in experiment [1] (first compound 0.003 µM) amounted to 0.847; in experiment [1] (first compound 0.03 µM), 0.435; in experiment [1] (first compound 0.09487 µM), 0.28; in experiment [1] (first compound 0.3 µM), 0.249; in experiment [2] (first compound 0.02 µM), 0.455; in experiment [2] (first compound 0.2 µM), 0.488. Besides, the relative viability in experiment [2] (first compound 0.6325 µM) was determined as 0.437; in experiment [2] (first compound 2 µM), 0.463; in experiment [3] (first compound 0.003 µM), 0.583; in experiment [3] (first compound 0.03 µM), 0.626; in experiment [3] (first compound 0.09487 µM) it was 0.514; in experiment [3] (first compound 0.3 µM), 0.428. Moreover, the relative viability in experiment [4] (first compound 0.02 µM) amounted to 0.847; in experiment [4] (first compound 0.2 µM), 0.75; in experiment [4] (first compound 0.6325 µM), 0.813; in experiment [4] (first compound 2 µM), 0.726; in experiment [5] (first compound 0.003 µM), 0.684; in experiment [5] (first compound 0.03 µM), 0.574. For the same cell line, the relative viability in experiment [5] (first compound 0.09487 µM) was 0.37; in experiment [5] (first compound 0.3 µM) it was 0.383.

With NCI-H838, the relative viability in experiment [1] (first compound 0.003 µM) was determined as 0.98; in experiment [1] (first compound 0.03 µM), 0.225; in experiment [1] (first compound 0.09487 µM), 0.18; in experiment [1] (first compound 0.3 µM), 0.182; in experiment [2] (first compound 0.02 µM), 0.895; in experiment [2] (first compound 0.2 µM), 0.784. The relative viability in experiment [2] (first compound 0.6325 µM) came out at 0.987; in experiment [2] (first compound 2 µM), 0.896; in experiment [3] (first compound 0.003 µM) it was 0.257; in experiment [3] (first compound 0.03 µM), 0.227; in experiment [3] (first compound 0.09487 µM) it was 0.154; in experiment [3] (first compound 0.3 µM), 0.138. Besides, the relative viability in experiment [4] (first compound 0.02 µM) turned out to be 1.14; in experiment [4] (first compound 0.2 µM) it was 0.992; in experiment [4] (first compound 0.6325 µM), 1.09; in experiment [5] (first compound 0.003 µM), 0.968; in experiment [5] (first compound 0.03 µM), 0.705; in experiment [5] (first compound 0.09487 µM), 0.612. For the same cell line, the relative viability in experiment [5] (first compound 0.3 µM) stood at 0.655.
